5 compounds from US20100285583A1, “COMPOUNDS AND METHODS FOR INHIBITING PLATELET AGGREGATION” (priority 2009, published 2010) can be followed below.

The subject of one data set is Human washed platelets. Briefly: Platelet immunofluorescence analysis (subcellular localization). The data set is classed as cell-based. The settings on record: activated platelets in presence of inhibitor. The protocol:
Washed platelets (50 μl of […] in Tyrode's albumin buffer) were incubated with 1.9 μM of PTB domain constructs for 5 min at room temperature in the presence of 0.25 g/L fibrinogen. Aggregation was initiated by the addition of 10 μM TRAP. Reactions were incubated at room temperature unless otherwise indicated. Platelets were fixed with 0.4 mL of 3.7% formaldehyde in Phosphate Buffered Saline (PBS) for 30 min. Next, 20% goat serum was added to the fixed platelets, and 60% of the total fixed reaction was centrifuged using a Shandon cytospinner onto a Shandon coated cytoslide to achieve the appropriate platelet density for analysis. Slides were then washed twice with PBS for 10 min. Platelets were permeabilized with 0.5% Triton X-100 in PBS for 10 min and then blocked with 20% goat serum in PBS with 0.1% Triton X-100 for 1 h at room temperature. Platelets were washed 3 times with PBS with 0.1% Triton for 10 minutes and further incubated overnight with the anti-Dab2 antibody 1:100 (anti-p96; BD Transduction) in PBS with 0.1% Triton X-100 and 10% goat serum at 4° C. in a humidity chamber. Platelets were then washed and incubated with the anti-mouse Cy-3 conjugated goat antibody 1:250 and Alexa488 conjugated phalloidin (25 μg/mL) in PBS with 0.1% Triton X-100 and 10% goat serum for 2 h. Platelets were washed again and observed on an Olympus IX71 microscope using the Softworx Applied Precision software.
Mean pixel intensity was determined for 400 platelets from four fields each for 3 min and 10 min of treatments by manually drawing circles around individual platelets using the 2D Polygon tool in the Softworx software. For each time point, a threshold of significant mean pixel intensity was defined for the experiment. The percentage of countable platelets to exceed the threshold was calculated for each field and the average of four fields was computed with standard deviation. The ratio of internalization:binding is the quotient of these averages for a treatment.

A further data set concerns the target T1, N-PTB domain (Homo sapiens, UniProt P98082, A82R).
T1 construct: The N-PTB domain (residues 1-241) cDNA construct was cloned into a pGEX6P1 vector; made in house; host or cells: E. coli Rosetta
T1 sequence (P98082 1-241 A82R): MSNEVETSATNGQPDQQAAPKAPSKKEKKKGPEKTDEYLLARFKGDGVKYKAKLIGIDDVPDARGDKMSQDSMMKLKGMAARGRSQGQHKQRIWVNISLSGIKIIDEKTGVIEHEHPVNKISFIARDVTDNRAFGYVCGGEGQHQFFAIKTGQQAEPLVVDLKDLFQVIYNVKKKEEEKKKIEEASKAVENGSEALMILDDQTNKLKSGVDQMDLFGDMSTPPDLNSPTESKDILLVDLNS
Briefly: Protein-lipid overlay competition assay. In kind it is binding. The settings on record: pre-incubation with 10-fold excess of lipid. As to the method: Membrane strips (SphingoStrips™) spotted with 100 pmol of sphingolipids were purchased from Echelon Research Laboratories. Membrane strips were incubated with 0.1 μg/ml of the Dab2 PTB domain or its mutants in 20 mM Tris-HCl (pH 8.0), 150 mM NaCl, 0.1% Tween-20 and 3% fatty acid-free bovine serum albumin overnight at 4° C. Following four washes with the same buffer, proteins bound to the membrane strips were probed with rabbit anti-GST antibody (Santa Cruz Biotech). Donkey anti rabbit-horse radish peroxidase (HRP) antibody was obtained from GE Healthcare. Detection was carried out using ECL reagent (Pierce). Also, lipid strips were prepared by spotting 1 μl of either sulfatides or PtdIns(4,5)P2 dissolved in chloroform:methanol:water (1:2:0.8 and 65:35:8, respectively) onto Hybond-C extra membranes (GE Healthcare) and protein binding was monitored as described above. Bound protein was quantified using the AlphaImager program and binding was calculated as a percentage of GST-PTB binding to 100 pmoles of spotted lipid.
We next asked whether sulfatides and PtdIns(4,5)P2 compete with each other for binding to the N-PTB domain using a protein-lipid overlay competition assay. […] This observation was further confirmed by competing sulfatides and PtdIns(4,5)P2 for N-PTB domain binding using SPR. […]

Data set [1] has as its system T2, Dab2 N-terminal phosphotyrosine binding domain (N-PTB, residues 1-241 of human Disabled-2), wild type.
T2 sequence: T1 sequence (P98082 1-241 A82R)

Turning to `CN(C)CCCN1c2ccccc2Sc2ccc(Cl)cc21` [chlorpromazine, reference compound], in the data set with Human washed platelets, the “effect on N-PTB domain internalization” value is reported as “inhibited”.

For `C=C1[C@@H](C)[C@H]2[C@H](Cc3ccccc3)NC(=O)[C@]23[C@H](OC(C)=O)/C=C/[C@@](C)(O)C(=O)[C@@H](C)C/C=C/[C@H]3[C@@H]1O` [cytochalasin D, reference compound], in the data set on Human washed platelets, the “effect on N-PTB domain internalization” value is listed as “completely blocked N-PTB domain internalization”.

Consider `CCCCCCCCCCCCCCCC(=O)OC[C@H](COP(=O)(O)O[C@@H]1[C@H](O)[C@H](OP(=O)(O)O)[C@@H](O)[C@H](O)[C@H]1O)OC(=O)CCCCCCCCCCCCCCC` [PtdIns(3)P, phosphatidylinositol 3-phosphate], for which the “competition with sulfatide for PTB binding” value at N-PTB domain was “did not compete”. “phosphatidylinositol 4,5-bisphosphate [PtdIns(4,5)P2]”: the “reduction of sulfatide binding of N-PTB domain” value at N-PTB domain is on record as “at least 60%”. Regarding thrombin, the “thrombin proteolysis of the N-PTB domain (FIG. 3B)” value in data set [1] was “thrombin cleaved the N-PTB domain leaving a ˜25 kW protease-resistant product”.
